Data reported in PMC6409085, “Three odorant-binding proteins are involved in the behavioral response of Sogatella furcifera to rice plant volatiles” (PeerJ, 2019).
“And” between values parts separate entries of the source, which are not always exact repeats. Equal values may be shown once.

How the values were obtained:
SfurOBP3 = SfurOBP3 (Sogatella furcifera, UniProt V5T818); experiment: biochemical; type: binding; details: for Fluorescence competitive binding assay, fluorescence intensity: OBP3, three replicate columns
Chain of SfurOBP3 (V5T818 entry or part of it): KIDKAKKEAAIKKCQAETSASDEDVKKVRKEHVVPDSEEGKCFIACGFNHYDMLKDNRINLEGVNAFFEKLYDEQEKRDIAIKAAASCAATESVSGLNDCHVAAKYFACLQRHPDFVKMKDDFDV
Procedure, shortened: (§1)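 First, 2.0 µM protein in 50 mM Tris-HCl (pH 7.4) was titrated with 1-NPN to obtain K1-NPN. Then odorants (2–20 µM final) competed against 2.0 µM 1-NPN, with fluorescence (ex 337 nm) recorded after 2 min. Ki was computed from IC50 via Ki = IC50/(1 + [1-NPN]/K1-NPN).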

SfurOBP2 = SfurOBP2 (Sogatella furcifera, UniProt V5T759); experiment: biochemical; type: binding
Chain of SfurOBP2 (V5T759 entry or part of it): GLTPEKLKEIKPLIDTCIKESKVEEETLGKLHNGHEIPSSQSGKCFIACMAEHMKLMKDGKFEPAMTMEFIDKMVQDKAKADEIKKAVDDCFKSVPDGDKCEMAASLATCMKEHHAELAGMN
Procedure, shortened: as §1

SfurOBP11 = SfurOBP11 (Sogatella furcifera, UniProt V5T6E3); experiment: biochemical; type: binding
Chain of SfurOBP11 (V5T6E3 entry or part of it): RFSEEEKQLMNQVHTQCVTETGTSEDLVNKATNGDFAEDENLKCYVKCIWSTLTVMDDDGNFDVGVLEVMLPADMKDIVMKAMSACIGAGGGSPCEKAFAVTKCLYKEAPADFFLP
Procedure, shortened: as §1

SfurOBP1 = SfurOBP1 (Sogatella furcifera, UniProt V5T8N5); experiment: biochemical; type: binding; details: for Fluorescence competitive binding assay, fluorescence intensity: OBP1, three replicate columns
Chain of SfurOBP1 (V5T8N5 entry or part of it): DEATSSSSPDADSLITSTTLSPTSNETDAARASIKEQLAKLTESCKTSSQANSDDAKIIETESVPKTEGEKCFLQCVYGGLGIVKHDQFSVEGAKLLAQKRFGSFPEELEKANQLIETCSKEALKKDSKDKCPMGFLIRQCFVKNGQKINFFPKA
Procedure, shortened: as §1

S. furcifera adults = experiment: Y-tube olfactometer behavioral trials; type: in vivo, Sogatella furcifera; details: odorant 50 µL/L vs hexane; adults
Procedure, shortened: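 Single S. furcifera adults (2 days post-emergence, starved 0.5 h) chose between odorant (100 µL of 50 µL/L on filter paper) and hexane control in a glass Y-tube, charcoal-filtered humidified air 300 mL/min per arm, 25 ± 1 °C, 50% RH. Choice scored if insect passed half an arm and stayed >1 min within 10 min; 45 insects per compound, chi-squared test.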

C=CC(C)(O)CCC=C(C)C (stereo not drawn) [linalool]
IC50 (SfurOBP3): > 20 µM
Fluorescence competitive binding assay, fluorescence intensity (SfurOBP3; ligand concentration 2): 45666 and 44893 and 46206
Fluorescence competitive binding assay, fluorescence intensity (SfurOBP3; ligand concentration 4): 43749 and 45410 and 42660
Fluorescence competitive binding assay, fluorescence intensity (SfurOBP3; ligand concentration 6): 44364 and 44740 and 45115
Fluorescence competitive binding assay, fluorescence intensity (SfurOBP3; ligand concentration 8): 41369 and 43894 and 46339
Fluorescence competitive binding assay, fluorescence intensity (SfurOBP3; ligand concentration 10): 41142 and 43565 and 45619
Fluorescence competitive binding assay, fluorescence intensity (SfurOBP3; ligand concentration 12): 38618 and 37689 and 38140
Fluorescence competitive binding assay, fluorescence intensity (SfurOBP3; ligand concentration 14): 35045 and 37361 and 38462
Fluorescence competitive binding assay, fluorescence intensity (SfurOBP3; ligand concentration 16): 32691 and 35765 and 36425
Fluorescence competitive binding assay, fluorescence intensity (SfurOBP3; ligand concentration 18): 35273 and 34668 and 35335
Fluorescence competitive binding assay, fluorescence intensity (SfurOBP3; ligand concentration 20): 34176 and 32081 and 34822
IC50 (SfurOBP2): > 20 µM
Fluorescence competitive binding assay, OBP2 (raw fluorescence reading) (SfurOBP2; ligand concentration 2 (unit not given), replicate column 1 of 3): 22475
Fluorescence competitive binding assay, OBP2 (raw fluorescence reading) (SfurOBP2; ligand concentration 2 (unit not given), replicate column 2 of 3): 19579
Fluorescence competitive binding assay, OBP2 (raw fluorescence reading) (SfurOBP2; ligand concentration 2 (unit not given), replicate column 3 of 3): 19869
Fluorescence competitive binding assay, OBP2 (raw fluorescence reading) (SfurOBP2; ligand concentration 4 (unit not given), replicate column 1 of 3): 18324
Fluorescence competitive binding assay, OBP2 (raw fluorescence reading) (SfurOBP2; ligand concentration 4 (unit not given), replicate column 2 of 3): 21526
Fluorescence competitive binding assay, OBP2 (raw fluorescence reading) (SfurOBP2; ligand concentration 4 (unit not given), replicate column 3 of 3): 18676
Fluorescence competitive binding assay, OBP2 (raw fluorescence reading) (SfurOBP2; ligand concentration 6 (unit not given), replicate column 1 of 3): 20143
Fluorescence competitive binding assay, OBP2 (raw fluorescence reading) (SfurOBP2; ligand concentration 6 (unit not given), replicate column 2 of 3): 19481
Fluorescence competitive binding assay, OBP2 (raw fluorescence reading) (SfurOBP2; ligand concentration 6 (unit not given), replicate column 3 of 3): 21546
Fluorescence competitive binding assay, OBP2 (raw fluorescence reading) (SfurOBP2; ligand concentration 8 (unit not given), replicate column 1 of 3): 18566
Fluorescence competitive binding assay, OBP2 (raw fluorescence reading) (SfurOBP2; ligand concentration 8 (unit not given), replicate column 2 of 3): 19629
Fluorescence competitive binding assay, OBP2 (raw fluorescence reading) (SfurOBP2; ligand concentration 8 (unit not given), replicate column 3 of 3): 19018
Fluorescence competitive binding assay, OBP2 (raw fluorescence reading) (SfurOBP2; ligand concentration 10 (unit not given), replicate column 1 of 3): 17948
Fluorescence competitive binding assay, OBP2 (raw fluorescence reading) (SfurOBP2; ligand concentration 10 (unit not given), replicate column 2 of 3): 18880
Fluorescence competitive binding assay, OBP2 (raw fluorescence reading) (SfurOBP2; ligand concentration 10 (unit not given), replicate column 3 of 3): 17034
Fluorescence competitive binding assay, OBP2 (raw fluorescence reading) (SfurOBP2; ligand concentration 12 (unit not given), replicate column 1 of 3): 17194
Fluorescence competitive binding assay, OBP2 (raw fluorescence reading) (SfurOBP2; ligand concentration 12 (unit not given), replicate column 2 of 3): 16713
Fluorescence competitive binding assay, OBP2 (raw fluorescence reading) (SfurOBP2; ligand concentration 12 (unit not given), replicate column 3 of 3): 16298
Fluorescence competitive binding assay, OBP2 (raw fluorescence reading) (SfurOBP2; ligand concentration 14 (unit not given), replicate column 1 of 3): 15375
Fluorescence competitive binding assay, OBP2 (raw fluorescence reading) (SfurOBP2; ligand concentration 14 (unit not given), replicate column 2 of 3): 15983
Fluorescence competitive binding assay, OBP2 (raw fluorescence reading) (SfurOBP2; ligand concentration 14 (unit not given), replicate column 3 of 3): 16080
Fluorescence competitive binding assay, OBP2 (raw fluorescence reading) (SfurOBP2; ligand concentration 16 (unit not given), replicate column 1 of 3): 16976
Fluorescence competitive binding assay, OBP2 (raw fluorescence reading) (SfurOBP2; ligand concentration 16 (unit not given), replicate column 2 of 3): 14612
Fluorescence competitive binding assay, OBP2 (raw fluorescence reading) (SfurOBP2; ligand concentration 16 (unit not given), replicate column 3 of 3): 14664
Fluorescence competitive binding assay, OBP2 (raw fluorescence reading) (SfurOBP2; ligand concentration 18 (unit not given), replicate column 1 of 3): 15874
Fluorescence competitive binding assay, OBP2 (raw fluorescence reading) (SfurOBP2; ligand concentration 18 (unit not given), replicate column 2 of 3): 15679
Fluorescence competitive binding assay, OBP2 (raw fluorescence reading) (SfurOBP2; ligand concentration 18 (unit not given), replicate column 3 of 3): 13833
Fluorescence competitive binding assay, OBP2 (raw fluorescence reading) (SfurOBP2; ligand concentration 20 (unit not given), replicate column 1 of 3): 14349
Fluorescence competitive binding assay, OBP2 (raw fluorescence reading) (SfurOBP2; ligand concentration 20 (unit not given), replicate column 2 of 3): 13969
Fluorescence competitive binding assay, OBP2 (raw fluorescence reading) (SfurOBP2; ligand concentration 20 (unit not given), replicate column 3 of 3): 12873
IC50 (SfurOBP11): > 20 µM
Fluorescence intensity, fluorescence competitive binding assay, OBP11 (SfurOBP11; ligand concentration 2, replicate 1): 34595
Fluorescence intensity, fluorescence competitive binding assay, OBP11 (SfurOBP11; ligand concentration 2, replicate 2): 35145
Fluorescence intensity, fluorescence competitive binding assay, OBP11 (SfurOBP11; ligand concentration 2, replicate 3): 35691
Fluorescence intensity, fluorescence competitive binding assay, OBP11 (SfurOBP11; ligand concentration 4, replicate 1): 34126
Fluorescence intensity, fluorescence competitive binding assay, OBP11 (SfurOBP11; ligand concentration 4, replicate 2): 38977
Fluorescence intensity, fluorescence competitive binding assay, OBP11 (SfurOBP11; ligand concentration 4, replicate 3): 36540
Fluorescence intensity, fluorescence competitive binding assay, OBP11 (SfurOBP11; ligand concentration 6, replicate 1): 35921
Fluorescence intensity, fluorescence competitive binding assay, OBP11 (SfurOBP11; ligand concentration 6, replicate 2): 34102
Fluorescence intensity, fluorescence competitive binding assay, OBP11 (SfurOBP11; ligand concentration 6, replicate 3): 34901
Fluorescence intensity, fluorescence competitive binding assay, OBP11 (SfurOBP11; ligand concentration 8, replicate 1): 31879
Fluorescence intensity, fluorescence competitive binding assay, OBP11 (SfurOBP11; ligand concentration 8, replicate 2): 34190
Fluorescence intensity, fluorescence competitive binding assay, OBP11 (SfurOBP11; ligand concentration 8, replicate 3): 34940
Fluorescence intensity, fluorescence competitive binding assay, OBP11 (SfurOBP11; ligand concentration 10, replicate 1): 32152
Fluorescence intensity, fluorescence competitive binding assay, OBP11 (SfurOBP11; ligand concentration 10, replicate 2): 33920
Fluorescence intensity, fluorescence competitive binding assay, OBP11 (SfurOBP11; ligand concentration 10, replicate 3): 34003
Fluorescence intensity, fluorescence competitive binding assay, OBP11 (SfurOBP11; ligand concentration 12, replicate 1): 31331
Fluorescence intensity, fluorescence competitive binding assay, OBP11 (SfurOBP11; ligand concentration 12, replicate 2): 31885
Fluorescence intensity, fluorescence competitive binding assay, OBP11 (SfurOBP11; ligand concentration 12, replicate 3): 32147
Fluorescence intensity, fluorescence competitive binding assay, OBP11 (SfurOBP11; ligand concentration 14, replicate 1): 27789
Fluorescence intensity, fluorescence competitive binding assay, OBP11 (SfurOBP11; ligand concentration 14, replicate 2): 28913
Fluorescence intensity, fluorescence competitive binding assay, OBP11 (SfurOBP11; ligand concentration 14, replicate 3): 26664
Fluorescence intensity, fluorescence competitive binding assay, OBP11 (SfurOBP11; ligand concentration 16, replicate 1): 26184
Fluorescence intensity, fluorescence competitive binding assay, OBP11 (SfurOBP11; ligand concentration 16, replicate 2): 25844
Fluorescence intensity, fluorescence competitive binding assay, OBP11 (SfurOBP11; ligand concentration 16, replicate 3): 25199
Fluorescence intensity, fluorescence competitive binding assay, OBP11 (SfurOBP11; ligand concentration 18, replicate 1): 30237
Fluorescence intensity, fluorescence competitive binding assay, OBP11 (SfurOBP11; ligand concentration 18, replicate 2): 30011
Fluorescence intensity, fluorescence competitive binding assay, OBP11 (SfurOBP11; ligand concentration 18, replicate 3): 30462
Fluorescence intensity, fluorescence competitive binding assay, OBP11 (SfurOBP11; ligand concentration 20, replicate 1): 29291
Fluorescence intensity, fluorescence competitive binding assay, OBP11 (SfurOBP11; ligand concentration 20, replicate 2): 29263
Fluorescence intensity, fluorescence competitive binding assay, OBP11 (SfurOBP11; ligand concentration 20, replicate 3): 28048
IC50 (SfurOBP1): > 20 µM
Fluorescence competitive binding assay, fluorescence intensity (SfurOBP1; ligand concentration 2 (μM)): 6084 and 5184 and 7029
Fluorescence competitive binding assay, fluorescence intensity (SfurOBP1; ligand concentration 4 (μM)): 5717 and 6456 and 6034
Fluorescence competitive binding assay, fluorescence intensity (SfurOBP1; ligand concentration 6 (μM)): 5873 and 6101 and 6679
Fluorescence competitive binding assay, fluorescence intensity (SfurOBP1; ligand concentration 8 (μM)): 5733 and 6957 and 6693
Fluorescence competitive binding assay, fluorescence intensity (SfurOBP1; ligand concentration 10 (μM)): 5847 and 5923 and 6121
Fluorescence competitive binding assay, fluorescence intensity (SfurOBP1; ligand concentration 12 (μM)): 6065 and 6137 and 6412
Fluorescence competitive binding assay, fluorescence intensity (SfurOBP1; ligand concentration 14 (μM)): 7822 and 5806 and 6262
Fluorescence competitive binding assay, fluorescence intensity (SfurOBP1; ligand concentration 16 (μM)): 5059 and 6382 and 5339
Fluorescence competitive binding assay, fluorescence intensity (SfurOBP1; ligand concentration 18 (μM)): 6537 and 6532 and 5815
Fluorescence competitive binding assay, fluorescence intensity (SfurOBP1; ligand concentration 20 (μM)): 6056 and 5740 and 5464
number of insects choosing hexane arm (S. furcifera adults): 14
number of insects choosing volatilies arm (S. furcifera adults): 14
number of insects failed (no choice) (S. furcifera adults): 12
